Assay results as given in paper PMC9645390, “Amphiphilic stilbene derivatives attenuate the neurotoxicity of soluble Aβ42 oligomers by controlling their interactions with cell membranes” (Chemical Science, 2022).
“Also recorded” adds a separate entry of the source.

Experiments:
[1] = test system: Aβ fibrils–SH-SY5Y cell membrane interactions; assay: Confocal imaging of Aβ fibrils binding to SH-SY5Y cell membranes; type: cell-based, human; conditions: 5 µM fibrils + 5 µM compound, 24 h
Excerpt: Encouraged by the ability of the developed amphiphilic compounds to attenuate the neurotoxicity of Cu–Aβ species, we sought out to study the possible molecular mechanisms for this beneficial effect. The Aβ oligomers were reported to interact with cell membranes in various ways, such as binding to receptors on cell membranes,[49,50] inserting into membranes,[51] or even showing cellular uptake via endocytosis.[52] The abnormal interactions between Aβ oligomers and neuron cells, which could disrupt the neuronal ion homeostasis and neuron cell membrane integrity, might be why Aβ oligomers are highly neurotoxic.[53–55] Moreover, molecules that can disrupt interactions between oligomers and cell membranes are promising candidates for drug development.[56,57] Thus, we proceeded to probe the interactions of the Aβ42 oligomers with SH-SY5Y cellular membranes, in the absence and presence of the compounds, via confocal microscopy. […] Moreover, a lower concentration of Aβ42 (5 μM) or Aβ42–Cu (5 μM) were chosen to avoid significant cell death (Fig. S9b ^†). […]
RCSB database and optimized by minimal minimization with the OPLS3 force field using the Protein Preparation Wizard program. […] The calculated poses were ranked by both the docking score and Glide e-model energy, and the structures with the best docking scores and Glide e-model energies were rendered in […]

[2] = test system: mouse neuroblastoma N2a cells; assay: Alamar Blue cytotoxicity assay in N2a cells; type: cell-based; conditions: 2 to 20 μM
[3] = molecular target: T1, human serum albumin (HSA) (Homo sapiens, UniProt P02768); assay: Fluorescence turn-on with human serum albumin (selectivity); type: binding; conditions: compound 5 µM, HSA 1 mg/mL, Aβ42 fibrils 25 µM for comparison
T1 construct: purchased
T1 sequence (P02768 25-609): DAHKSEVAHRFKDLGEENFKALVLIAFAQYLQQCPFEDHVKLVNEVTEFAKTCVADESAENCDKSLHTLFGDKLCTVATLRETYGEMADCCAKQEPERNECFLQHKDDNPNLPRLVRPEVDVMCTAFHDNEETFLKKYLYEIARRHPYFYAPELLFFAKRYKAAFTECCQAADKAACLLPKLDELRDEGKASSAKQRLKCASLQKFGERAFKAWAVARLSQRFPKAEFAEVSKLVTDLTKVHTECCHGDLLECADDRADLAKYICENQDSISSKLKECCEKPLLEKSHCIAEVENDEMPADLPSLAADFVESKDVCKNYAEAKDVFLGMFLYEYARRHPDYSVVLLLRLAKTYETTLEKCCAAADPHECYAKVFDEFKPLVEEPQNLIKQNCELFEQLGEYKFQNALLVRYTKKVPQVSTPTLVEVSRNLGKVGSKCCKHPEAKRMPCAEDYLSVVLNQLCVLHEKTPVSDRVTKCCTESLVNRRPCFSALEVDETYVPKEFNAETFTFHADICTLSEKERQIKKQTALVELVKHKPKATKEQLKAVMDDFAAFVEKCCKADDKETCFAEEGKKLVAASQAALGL
Procedure: To investigate whether these amphiphilic compounds can interact with different Aβ species, we recorded the fluorescence intensity changes in the absence and presence of Aβ42 fibrils and oligomers, respectively, which were prepared as previously reported.[28] […] The enhanced fluorescence intensity and blue shift are possibly due to the restriction in a rotation of the aromatic rings and the changes of hydrophobicity at the Aβ binding sites. […] Comparing the ZY-17 series with the other series of compounds, we believe that the thiophene ring in the stilbene-like binding scaffold is essential for the selectively toward Aβ species, while the more hydrophobic tri-benzene rings might lead to unspecific binding to other proteins; such a design principle will be key for the development of second-generation compounds with increased Aβ-binding selectivity.
Figure S4. Fluorescence turn-on effects of amphiphilic compounds with HAS; [compound] = 5 µM, [Aβ42 fibrils] = […]

| SMILES | Aβ fibrils binding to cell membranes (in words) [1] | cytotoxicity (in words) [2] | fluorescence turn-on in the presence of HSA (in words) [3] |
| --- | --- | --- | --- |
| COc1cc(/C=C/c2ccc(-c3ccc(C=O)cc3)s2)cc(CN2CCN(C)CCN(C)CC2)c1O [ZY-15-OMe] | not able to significantly decrease the numbers of the Aβ fibrils binding to cell membranes |  |  |
| COc1cc(OC)cc(-c2ccc(/C=C/c3cc(CN4CCN(C)CCN(C)CC4)c(O)c(OC)c3)cc2)c1 [ZY-17-OMe] |  | higher cytotoxicity than others; also recorded: the highest toxicity | even higher fluorescence intensity increase in the presence of HSA than for Aβ42 fibrils |
| COc1cc(OC)cc(-c2ccc(/C=C/c3cc(CN4CCN(C)CCN(C)CC4)c(O)c(CN4CCN(C)CCN(C)CC4)c3)cc2)c1 [ZY-17-DT] |  | higher cytotoxicity than others | even higher fluorescence intensity increase in the presence of HSA than for Aβ42 fibrils |
| CN1CCN(C)CCN(Cc2cc(/C=C/c3ccc(-c4ccc(C=O)cc4)s3)ccc2O)CC1 [ZY-15-MT] | not able to significantly decrease the numbers of the Aβ fibrils binding to cell membranes |  |  |
